target: T1, menin/MLL binding (biotinylated wild-type or mutated menin and MLL-AF9 fusion protein) (Homo sapiens, UniProt O00255); assay: Assay 1 (Binding Assay): AlphaLISA menin/MLL binding; settings: 5 nM biotinylated menin, MLL-AF9-FLAG lysate
T1 construct: biotinylated (1) wild-type menin or (2) mutated menin (described in Nature (2012) Vol. 482, pp. 542-548); fused on or other part: Biotin attached chemically (Sulfo-NHS-Biotin); no fused second protein is printed for menin
T1 sequence (O00255 1-459 limits assumed): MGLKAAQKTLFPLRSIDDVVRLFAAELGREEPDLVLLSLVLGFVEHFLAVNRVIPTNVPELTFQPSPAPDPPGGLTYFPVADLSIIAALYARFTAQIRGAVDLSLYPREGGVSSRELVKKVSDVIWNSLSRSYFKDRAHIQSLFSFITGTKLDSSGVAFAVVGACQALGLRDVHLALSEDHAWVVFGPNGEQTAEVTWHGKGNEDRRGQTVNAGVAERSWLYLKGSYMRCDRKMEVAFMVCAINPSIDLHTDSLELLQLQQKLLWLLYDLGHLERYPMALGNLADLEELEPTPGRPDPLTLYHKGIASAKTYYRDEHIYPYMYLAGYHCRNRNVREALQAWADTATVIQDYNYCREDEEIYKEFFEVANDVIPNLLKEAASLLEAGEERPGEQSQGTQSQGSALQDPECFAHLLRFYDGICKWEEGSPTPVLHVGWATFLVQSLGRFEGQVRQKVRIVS
Experimental: Potencies of inhibitor compounds against menin/MLL binding were assessed by AlphaLISA assay using biotinylated (1) wild-type menin or (2) mutated menin (described in Nature (2012) Vol. 482, pp. 542-548) and MLL-AF9 fusion protein bearing a FLAG epitope at its C-terminus. Menin proteins were expressed in E. coli and covalently modified with biotin using EZ-Link™ Sulfo-NHS-Biotin (ThermoFisher Cat. No. 21217) according to manufacturer's protocol. MLL1-1,396 fused to AF91-92 and the C-terminal FLAG peptide was expressed in HEK293 cells and used as a lysate cleared at 21,000×g for 10 min.
Compounds (2 μL of solutions in DMSO) were dispensed in white 96-well half-area plates (Corning Cat. No. 3693) and incubated for 30 min at RT with 5 nM biotinylated menin and appropriate amount of MLL-AF9-FLAG lysate in 40 μL of 50 mM Tris-HCl buffer pH 7.4 containing 5% (v/v) DMSO, 50 mM NaCl, 0.01% (w/v) bovine serum albumin (BSA) and 1 mM DTT. To this incubation mixture, 40 μl of AlphaLISA anti-FLAG acceptor (PerkinElmer Cat. No. AL112C) and streptavidin donor (PerkinElmer Cat. No. 6760002) beads (10 μg/mL each) was added and incubation continued at RT for 60 min. Alpha (amplified luminescent proximity homogeneous assay) signal was measured on an Envision multi-label plate reader at the end of the incubation. All steps were conducted under dim fluorescent light.
These percent inhibition values were regressed against compound concentrations in the assay using four parameter logit non-linear curve fitting (XLFit, IDBS). The IC50 values were derived from the curve fitting as inflection points on the dose-response curves and are set out in Table 14 below.

Compound | IC50
CC(C)N(C)C(=O)c1cc(F)ccc1-n1cc([C@H]2CC[C@H](NC(=O)C3CCCCC3)CC2)c2ccncc21 [Example 130, 2-(3-(trans-4-(cyclohexanecarboxamido)cyclohexyl)-1H-pyrrolo[2,3-c]pyridin-1-yl)-5-fluoro-N-isopropyl-N-methylbenzamide] | ≥ 1000 nM
CC(C)N(C)C(=O)c1cc(F)ccc1-n1cc([C@H]2CC[C@H](N3CCN(CCO)CC3)CC2)c2ccncc21 [Example 114, 5-fluoro-2-(3-(trans-4-(4-(2-hydroxyethyl)piperazin-1-yl)cyclohexyl)-1H-pyrrolo[2,3-c]pyridin-1-yl)-N-isopropyl-N-methylbenzamide] | < 100 nM
CC(C)N(C)C(=O)c1cc(F)ccc1-n1cc([C@H]2CC[C@@H](N3CCC[C@H]3CO)CC2)c2ccncc21 [Example 97, 5-fluoro-2-(3-(cis-4-((S)-2-(hydroxymethyl)pyrrolidin-1-yl)cyclohexyl)-1H-pyrrolo[2,3-c]pyridin-1-yl)-N-isopropyl-N-methylbenzamide] | < 100 nM
Cc1c(CN2CCC(c3cn(-c4ccc(Cl)cc4)c4cnccc34)CC2)ccc2[nH]c(C#N)cc12 [Example 38, 5-((4-(1-(4-chlorophenyl)-1H-pyrrolo[2,3-c]pyridin-3-yl)piperidin-1-yl)methyl)-4-methyl-1H-indole-2-carbonitrile] | 100 to 1000 nM
CC(C)N(C)C(=O)c1cc(F)ccc1-n1cc([C@H]2CC[C@H](NC(=O)c3ccccc3)CC2)c2ccncc21 [Example 129, 2-(3-(trans-4-benzamidocyclohexyl)-1H-pyrrolo[2,3-c]pyridine-1-yl)-5-fluoro-N-isopropyl-N-methylbenzamide] | ≥ 1000 nM
Cc1cc(F)ccc1-n1cc(C2CCN(Cc3ccc4[nH]c(C#N)cc4c3C)CC2)c2ncncc21 [Example 70, 5-((4-(5-(4-fluoro-2-methylphenyl)-5H-pyrrolo[3,2-d]pyrimidin-7-yl)piperidin-1-yl)methyl)-4-methyl-1H-indole-2-carbonitrile] | 100 to 1000 nM
Cc1c(CN2CCC(c3cn(-c4ccc(F)cc4C(=O)N(C)C)c4cncnc34)CC2)ccc2[nH]c(C#N)cc12 [Example 64, 2-(7-(1-((2-cyano-4-methyl-1H-indol-5-yl)methyl)piperidin-4-yl)-5H-pyrrolo[3,2-d]pyrimidin-5-yl)-5-fluoro-N,N-dimethylbenzamide] | < 100 nM
CC(C)N(C)C(=O)c1cc(F)ccc1-n1cc([C@H]2CC[C@@H](N3CC[C@@H](CO)C3)CC2)c2ccncc21 [Example 103, 5-fluoro-2-(3-(cis-4-((R)-3-(hydroxymethyl)pyrrolidin-1-yl)cyclohexyl)-1H-pyrrolo[2,3-c]pyridin-1-yl)-N-isopropyl-N-methylbenzamide] | < 100 nM
CC(C)N(C)C(=O)c1cc(F)ccc1-n1cc([C@H]2CC[C@H](N3CCC(C(=O)O)CC3)CC2)c2ccncc21 [Example 119, 1-(trans-4-(1-(4-fluoro-2-(isopropyl(methyl)carbamoyl)phenyl)-1H-pyrrolo[2,3-c]pyridin-3-yl)cyclohexyl)piperidine-4-carboxylic acid] | 100 to 1000 nM
CC(C)N(C)C(=O)c1cc(F)ccc1-n1cc([C@H]2CC[C@@H](N3CCN(CCO)CC3)CC2)c2ccncc21 [Example 115, 5-fluoro-2-(3-(cis-4-(4-(2-hydroxyethyl)piperazin-1-yl)cyclohexyl)-1H-pyrrolo[2,3-c]pyridin-1-yl)-N-isopropyl-N-methylbenzamide] | 100 to 1000 nM
CC(C)N(C)C(=O)c1cc(F)ccc1-n1cc(C2CCCN(Cc3ccc4[nH]c(=O)[nH]c4c3)C2)c2ccncc21 (single isomer, unassigned) [Example 43B, 5-fluoro-N-isopropyl-N-methyl-2-(3-(1-((2-oxo-2,3-dihydro-1H-benzo[d]imidazol-5-yl)methyl)piperidin-3-yl)-1H-pyrrolo[2,3-c]pyridin-1-yl)benzamide] | < 100 nM
CC(C)N(C)C(=O)c1cc(F)ccc1-n1c(=S)n(C2CCCN(Cc3ccc4[nH]c(=O)[nH]c4c3)C2)c2ccncc21 (stereo not drawn) [Example 135, 5-fluoro-N-isopropyl-N-methyl-2-(1-(1-((2-oxo-2,3-dihydro-1H-benzo[d]imidazol-5-yl)methyl)piperidin-3-yl)-2-thioxo-1,2-dihydro-3H-imidazo[4,5-c]pyridin-3-yl)benzamide] | 100 to 1000 nM
CC(C)N(C)C(=O)c1cc(F)ccc1-n1cc(C2CCN(Cc3ccc(S(C)(=O)=O)cc3)CC2)c2ccncc21 [Example 13, 5-fluoro-N-isopropyl-N-methyl-2-(3-(1-(4-(methylsulfonyl)benzyl)piperidin-4-yl)-1H-pyrrolo[2,3-c]pyridin-1-yl)benzamide] | 100 to 1000 nM
O=c1[nH]c2ccc(CN3CCC(c4cn(-c5ccc(F)cc5)c5cncnc45)CC3)cc2[nH]1 [Example 67, 5-((4-(5-(4-fluorophenyl)-5H-pyrrolo[3,2-d]pyrimidin-7-yl)piperidin-1-yl)methyl)-1H-benzo[d]imidazol-2(3H)-one] | ≥ 1000 nM
CC(C)N(C)C(=O)c1cc(F)ccc1-n1cc(C2CCC(O)CC2)c2ccncc21 (single isomer, unassigned) [Example 53, 5-fluoro-2-(3-(4-hydroxycyclohexyl)-1H-pyrrolo[2,3-c]pyridin-1-yl)-N-isopropyl-N-methylbenzamide] | ≥ 1000 nM
CC(C)N(C)C(=O)c1cc(F)ccc1-n1cc(C2CCC(N3CCC(O)C3)CC2)c2ccncc21 (single isomer, unassigned) [Example 95A, 5-fluoro-2-(3-(4-(3-hydroxypyrrolidin-1-yl)cyclohexyl)-1H-pyrrolo[2,3-c]pyridin-1-yl)-N-isopropyl-N-methylbenzamide] | < 100 nM
CC(C)N(C)C(=O)c1cc(F)ccc1-n1cc(C2CCC3(CC2)OCCO3)c2ccncc21 [Int. 17A, 2-(3-(1,4-dioxaspiro[4.5]decan-8-yl)-1H-pyrrolo[2,3-c]pyridin-1-yl)-5-fluoro-N-isopropyl-N-methylbenzamide] | ≥ 1000 nM
5-fluoro-N-isopropyl-N- methyl-2-(3-(2-((1- (methylsulfonyl) piperidin-4-yl)methyl) octahydrocyclopenta [c]pyrrol-5-yl)- 1H-pyrrolo[2,3-c] pyridin-1-yl) benzamide [Example 91] | < 100 nM
Cc1c(CN2CCC(c3cn(-c4ccccc4)c4cncnc34)CC2)ccc2[nH]c(C#N)cc12 [Example 72, 4-methyl-5-((4-(5-phenyl-5H-pyrrolo[3,2-d]pyrimidin-7-yl)piperidin-1-yl)methyl)-1H-indole-2-carbonitrile] | ≥ 1000 nM
CC(C)N(C)C(=O)c1cc(F)ccc1-n1cc(C2CCCN(C(=O)OC(C)(C)C)C2)c2ccncc21 (stereo not drawn) [Int. 2, tert-butyl 3-(1-(4-fluoro-2-(isopropyl(methyl)carbamoyl)phenyl)-1H-pyrrolo[2,3-c]pyridin-3-yl)piperidine-1-carboxylate] | ≥ 1000 nM
CC(C)N(C)C(=O)c1cc(F)ccc1-n1cc([C@H]2CC[C@@H](N3CCCCC3)CC2)c2ccncc21 [Example 107] | < 100 nM
CC(C)N(C(=O)c1cc(F)ccc1-n1cc(C2CCC(N3CCC4(CC(NS(C)(=O)=O)C4)C3)CC2)c2ccncc21)C(C)C (single isomer, unassigned) [Example 139A, 5-fluoro-N,N-diisopropyl-2-(3-(4-(2-(methylsulfonamido)-6-azaspiro[3.4]octan-6-yl)cyclohexyl)-1H-pyrrolo[2,3-c]pyridin-1-yl)benzamide] | < 100 nM
CC(C)N(C)C(=O)c1cc(F)ccc1-n1cc([C@H]2CC[C@H](N3CC(CO)C3)CC2)c2ccncc21 [Example 98, 5-fluoro-2-(3-(trans-4-(3-(hydroxymethyl)azetidin-1-yl)cyclohexyl)-1H-pyrrolo[2,3-c]pyridin-1-yl)-N-isopropyl-N-methylbenzamide] | < 100 nM
CC(C)N(C)C(=O)c1cc(F)ccc1-n1cc(C2CCN(C[C@H]3C[C@@H](NS(C)(=O)=O)C3)CC2)c2ccncc21 (stereo in doubt) [Example 92, 5-fluoro-N-isopropyl-N-methyl-2-(3-(1-((cis-3-(methylsulfonamido)cyclobutyl)methyl)piperidin-4-yl)-1H-pyrrolo[2,3-c]pyridin-1-yl)benzamide] | < 100 nM
